Species: Rattus norvegicus
Experiment: Open TG-GATES - Regimen: Single
Type: toxicity, organism-based, Sprague-Dawley
Set-up: regimen Single, gender Male, age 6 weeks
Conditions: in vivo, po, 10 mg/kg, route gavage, dose level Low; for APTT / Bas / Eos / Fbg / Hb / Ht / Lym / MCH / MCHC / MCV / Mono / Neu / PT / Plat / RBC / Ret / WBC: tissue Blood; for A/G / ALP / ALT / AST / BUN / CRE / Ca / Cl / DBIL / GLC / IP / K / LDH / Na / PL / RALB / TBIL / TC / TG / TP / gamma-GTP: tissue Plasma

SMILES: Cn1cc[nH]c1=S [METHIMAZOLE]
- TERMINAL_BW (3 h): 213.6 g
- APTT (3 h): 21.5 s
- Bas (3 h): 0%
- Eos (3 h): 0.4%
- Fbg (3 h): 291.6 mg/dL
- Hb (3 h): 13.5 g/dL
- Ht (3 h): 38.3%
- Lym (3 h): 81.6%
- MCH (3 h): 22.1 pg
- MCHC (3 h): 35.3%
- MCV (3 h): 62.6 fL
- Mono (3 h): 2%
- Neu (3 h): 15.2%
- PT (3 h): 15.4 s
- Plat (3 h): 123.9 x10_4/uL
- RBC (3 h): 611.8 x10_4/ul
- Ret (3 h): 8.4%
- WBC (3 h): 93.7 x10_2/uL
- A/G (3 h): 1.3
- ALP (3 h): 1742.6 IU/L
- ALT (3 h): 42 IU/L
- AST (3 h): 72.4 IU/L
- BUN (3 h): 13.8 mg/dL
- CRE (3 h): 0.1 mg/dL
- Ca (3 h): 10.6 mg/dL
- Cl (3 h): 106.6 meq/L
- DBIL (3 h): 0 mg/dL
- GLC (3 h): 179 mg/dL
- IP (3 h): 8.9 mg/dL
- K (3 h): 4.2 meq/L
- LDH (3 h): 206 IU/L
- Na (3 h): 141.2 meq/L
- PL (3 h): 141.4 mg/dL
- RALB (3 h): 3 g/dL
- TBIL (3 h): 0.006 mg/dL
- TC (3 h): 77 mg/dL
- TG (3 h): 74.4 mg/dL
- TP (3 h): 5.4 g/dL
- gamma-GTP (3 h): 1.2 IU/L
- TERMINAL_BW (6 h): 213.5 g
- APTT (6 h): 20.7 s
- Bas (6 h): 0%
- Eos (6 h): 1%
- Fbg (6 h): 279.8 mg/dL
- Hb (6 h): 13.6 g/dL
- Ht (6 h): 38.5%
- Lym (6 h): 78.2%
- MCH (6 h): 21.7 pg
- MCHC (6 h): 35.2%
- MCV (6 h): 61.8 fL
- Mono (6 h): 2.2%
- Neu (6 h): 18%
- PT (6 h): 16.1 s
- Plat (6 h): 103 x10_4/uL
- RBC (6 h): 624.6 x10_4/ul
- Ret (6 h): 8.8%
- WBC (6 h): 85.4 x10_2/uL
- A/G (6 h): 1.2
- ALP (6 h): 1761.8 IU/L
- ALT (6 h): 44.2 IU/L
- AST (6 h): 75.8 IU/L
- BUN (6 h): 10.4 mg/dL
- CRE (6 h): 0.1 mg/dL
- Ca (6 h): 10.6 mg/dL
- Cl (6 h): 106.4 meq/L
- DBIL (6 h): 0 mg/dL
- GLC (6 h): 185.2 mg/dL
- IP (6 h): 9.3 mg/dL
- K (6 h): 4.3 meq/L
- LDH (6 h): 182.4 IU/L
- Na (6 h): 141 meq/L
- PL (6 h): 124.8 mg/dL
- RALB (6 h): 2.8 g/dL
- TBIL (6 h): 0.01 mg/dL
- TC (6 h): 71.2 mg/dL
- TG (6 h): 70.6 mg/dL
- TP (6 h): 5.2 g/dL
- gamma-GTP (6 h): 1 IU/L
- TERMINAL_BW (9 h): 199.1 g
- APTT (9 h): 21.1 s
- Bas (9 h): 0%
- Eos (9 h): 0.8%
- Fbg (9 h): 299.4 mg/dL
- Hb (9 h): 13.2 g/dL
- Ht (9 h): 37.7%
- Lym (9 h): 75.6%
- MCH (9 h): 21.3 pg
- MCHC (9 h): 35.2%
- MCV (9 h): 60.6 fL
- Mono (9 h): 1.6%
- Neu (9 h): 21%
- PT (9 h): 16.4 s
- Plat (9 h): 124.5 x10_4/uL
- RBC (9 h): 622.2 x10_4/ul
- Ret (9 h): 7.7%
- WBC (9 h): 78.9 x10_2/uL
- A/G (9 h): 1.2
- ALP (9 h): 1423.4 IU/L
- ALT (9 h): 38.4 IU/L
- AST (9 h): 71.2 IU/L
- BUN (9 h): 10.8 mg/dL
- CRE (9 h): 0.1 mg/dL
- Ca (9 h): 10.5 mg/dL
- Cl (9 h): 106.4 meq/L
- DBIL (9 h): 0.002 mg/dL
- GLC (9 h): 178.2 mg/dL
- IP (9 h): 9.6 mg/dL
- K (9 h): 4.5 meq/L
- LDH (9 h): 154.8 IU/L
- Na (9 h): 140.6 meq/L
- PL (9 h): 133.2 mg/dL
- RALB (9 h): 3 g/dL
- TBIL (9 h): 0.01 mg/dL
- TC (9 h): 76.8 mg/dL
- TG (9 h): 65 mg/dL
- TP (9 h): 5.5 g/dL
- gamma-GTP (9 h): 1 IU/L
- TERMINAL_BW (24 h): 223.9 g
- APTT (24 h): 20.3 s
- Bas (24 h): 0%
- Eos (24 h): 0.8%
- Fbg (24 h): 307.8 mg/dL
- Hb (24 h): 14 g/dL
- Ht (24 h): 39.8%
- Lym (24 h): 79.8%
- MCH (24 h): 21.7 pg
- MCHC (24 h): 35.2%
- MCV (24 h): 61.9 fL
- Mono (24 h): 2.4%
- Neu (24 h): 16.4%
- PT (24 h): 15.6 s
- Plat (24 h): 96.9 x10_4/uL
- RBC (24 h): 643.8 x10_4/ul
- Ret (24 h): 7.2%
- WBC (24 h): 79.8 x10_2/uL
- A/G (24 h): 1.3
- ALP (24 h): 2168.2 IU/L
- ALT (24 h): 55.2 IU/L
- AST (24 h): 75 IU/L
- BUN (24 h): 15.6 mg/dL
- CRE (24 h): 0.1 mg/dL
- Ca (24 h): 11 mg/dL
- Cl (24 h): 106.2 meq/L
- DBIL (24 h): 0 mg/dL
- GLC (24 h): 180.6 mg/dL
- IP (24 h): 6.9 mg/dL
- K (24 h): 4.2 meq/L
- LDH (24 h): 175 IU/L
- Na (24 h): 142.2 meq/L
- PL (24 h): 169.8 mg/dL
- RALB (24 h): 3.1 g/dL
- TBIL (24 h): 0.01 mg/dL
- TC (24 h): 85.8 mg/dL
- TG (24 h): 145.4 mg/dL
- TP (24 h): 5.5 g/dL
- gamma-GTP (24 h): 1 IU/L
